# Measurements reported in PubChem BioAssay AID2060885 (Molecular Pharmacology Branch, DTP, NCI, 2025).
# System: NCI-H23 complex spheroids with HUVEC/MSC, viability
# Assay: Anticancer human tumor NCI-H23 cell line growth inhibition [RAS];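 note: spheroids exposed to compound for 7 days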;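 for viability, T/C: 100% = DMSO vehicle control viability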
# Details: for IC50: curve of first compound; for viability, T/C: stronger effect = lower value
# Procedure, shortened: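 Tumour cells grown as complex spheroids with HUVEC endothelial cells and mesenchymal stem cells, treated with RAS pathway inhibitor combinations. Each agent spans half-log steps from near clinical Cmax, or 10 microM where Cmax is unknown.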
smiles,measurement,setting,value
CC(C)n1nc(-c2ccc3oc(N)nc3c2)c2c(N)ncnc21 + CCn1c(-c2cccnc2C(C)OC)c2c3cc(ccc31)N1CCOC(CC(NC(=O)C(C(C)C)N(C)C(=O)C3(F)CCN(C(=O)C#CC(C)(C)N(C)C)CC3)C(=O)N3CCCC(N3)C(=O)OCC(C)(C)C2)C1,IC50,second compound 0.000949 µM,< 0.316 nM
same,IC50,second compound 0.003 µM,< 0.316 nM
same,IC50,second compound 0.00949 µM,< 0.316 nM
same,IC50,second compound 0.03 µM,< 0.316 nM
same,IC50,second compound 0.0949 µM,< 0.316 nM
same,IC50,second compound 0.3 µM,< 0.316 nM
same,"viability, T/C","second compound 0.000949 µM, first compound 0.000316 µM",33.1%
same,"viability, T/C","second compound 0.000949 µM, first compound 0.001 µM",33.1%
same,"viability, T/C","second compound 0.000949 µM, first compound 0.00316 µM",22%
same,"viability, T/C","second compound 0.000949 µM, first compound 0.01 µM",18.4%
same,"viability, T/C","second compound 0.000949 µM, first compound 0.0316 µM",16.5%
same,"viability, T/C","second compound 0.000949 µM, first compound 0.1 µM",8.34%
same,"viability, T/C","second compound 0.003 µM, first compound 0.000316 µM",30.4%
same,"viability, T/C","second compound 0.003 µM, first compound 0.001 µM",25%
same,"viability, T/C","second compound 0.003 µM, first compound 0.00316 µM",20.8%
same,"viability, T/C","second compound 0.003 µM, first compound 0.01 µM",18.1%
same,"viability, T/C","second compound 0.003 µM, first compound 0.0316 µM",12.2%
same,"viability, T/C","second compound 0.003 µM, first compound 0.1 µM",8.88%
same,"viability, T/C","second compound 0.00949 µM, first compound 0.000316 µM",28%
same,"viability, T/C","second compound 0.00949 µM, first compound 0.001 µM",24.2%
same,"viability, T/C","second compound 0.00949 µM, first compound 0.00316 µM",22.4%
same,"viability, T/C","second compound 0.00949 µM, first compound 0.01 µM",17.7%
same,"viability, T/C","second compound 0.00949 µM, first compound 0.0316 µM",12%
same,"viability, T/C","second compound 0.00949 µM, first compound 0.1 µM",9.44%
same,"viability, T/C","second compound 0.03 µM, first compound 0.000316 µM",26.2%
same,"viability, T/C","second compound 0.03 µM, first compound 0.001 µM",24.5%
same,"viability, T/C","second compound 0.03 µM, first compound 0.00316 µM",20.3%
same,"viability, T/C","second compound 0.03 µM, first compound 0.01 µM",18.6%
same,"viability, T/C","second compound 0.03 µM, first compound 0.0316 µM",10.4%
same,"viability, T/C","second compound 0.03 µM, first compound 0.1 µM",9.27%
same,"viability, T/C","second compound 0.0949 µM, first compound 0.000316 µM",27.5%
same,"viability, T/C","second compound 0.0949 µM, first compound 0.001 µM",25.4%
same,"viability, T/C","second compound 0.0949 µM, first compound 0.00316 µM",24.9%
same,"viability, T/C","second compound 0.0949 µM, first compound 0.01 µM",15.9%
same,"viability, T/C","second compound 0.0949 µM, first compound 0.0316 µM",9.52%
same,"viability, T/C","second compound 0.0949 µM, first compound 0.1 µM",10.3%
same,"viability, T/C","second compound 0.3 µM, first compound 0.000316 µM",24.9%
same,"viability, T/C","second compound 0.3 µM, first compound 0.001 µM",21.9%
same,"viability, T/C","second compound 0.3 µM, first compound 0.00316 µM",22.9%
same,"viability, T/C","second compound 0.3 µM, first compound 0.01 µM",16.1%
same,"viability, T/C","second compound 0.3 µM, first compound 0.0316 µM",10.5%
same,"viability, T/C","second compound 0.3 µM, first compound 0.1 µM",9.53%
